These results are taken from patent US20210154317A1, “COMPOSITIONS AND METHODS FOR THE TREATMENT OF VIRAL INFECTIONS” (Silverback Therapeutics, Inc., priority 2017, published 2021).

SMILES strings stand for the structures.

The test system of the experiment is monax PBMC. Put plainly: Marmota TNFα expression in stimulated PBMC by real time PCR. The experiment is classed as cell-based. Conditions: TaqMan real time PCR. The protocol: Total RNA was extracted from stimulated monax PBMC using the RNeasy®Mini kit (Qiagen, Maryland, MD) according to the manufacturer's protocol. Briefly, cells were pelleted and resuspended in 600 ul RLT buffer. The sample was vortexed and then run through a QIAshredder column. RNA was extracted from the supernatant and eluted with a 30 uL volume. RNA purity was assessed (A260/A280) using a Nanodrop one spectrophotometer (Thermofisher Scientific, Waltham, Mass., USA). For removal of genomic DNA, 800 ng RNA was incubated with 2 units DNase I (RNase-free) (New England Biolabs, Ipswich, Mass., USA) in DNase reaction buffer at 37° C. for 10 min. […]
The generation of oligonucleotide dimers for each TaqMan primer pair was assessed using Power SYBR®Green PCR Master-Mix (Foster City, Calif., Applied Biosystems) with melting curve analysis, according to the manufacturer's instructions. […] Data were analyzed using the Step One Software to generate Ct value for each sample.
A plot of Ct versus log copy number standard curve was generated using synthesized monax TNFα cDNA standard. The Ct value for each data point was then determined and normalized to the standard curve to obtain the copy number. […]

As for `CCOCc1nc2c(N)nc3ccccc3c2n1CC(C)(C)OCCNC(=O)C(C)(C)N`, the “monax TNFα gene activation (copy number per ng of mRNA)” value was “potent activation”.
Regarding `CCCN(CCC)C(=O)C1=Cc2ccc(C(=O)Nc3cnc4c(c3)CNCC4)cc2N=C(N)C1` [Compound 1.50, 2-amino-N^4,N^4-dipropyl-N^8-(5,6,7,8-tetrahydro-1,6-naphthyridin-3-yl)-3H-benzo[b]azepine-4,8-dicarboxamide], the “monax TNFα gene activation (copy number per ng of mRNA)” value is listed as “potent activation”.
